Laboratory results taken from PMC5602100, “Retro analog concept: comparative study on physico-chemical and biological properties of selected antimicrobial peptides” (Amino Acids, 2017).
Like-named read-outs stand apart in the source and are kept apart here. Ends that are not written are not given here.

What was measured:
S. pneumoniae ATCC 49619 = test system: S. pneumoniae ATCC 49619
Protocol: (§1) The minimal inhibitory concentrations (MICs) for bacteria and fungi were determined by the broth microdilution method according to the Clinical and Laboratory Standards Institute (CLSI) protocol (Clinical and Laboratory Standards Institute (CLSI) [2002], [2012]). For this purpose, the initial inoculums of bacteria (5 × 10^5 CFU/mL) in Mueller–Hinton Broth (Biocorp, Warsaw, Poland) were exposed to the ranging concentrations of compounds (0.125–256 µg/mL) and incubated for 18 h at 37 °C. In case of fungi, the initial inoculums of 2 × 10^3 CFU/mL in RPMI-1640 (Sigma-Aldrich, Steinheim, Germany) were exposed to the ranging concentrations of compounds (0.5–256 µg/mL) and incubated for 24 h at 37 °C. The experiments were conducted on 96-well microtiter plates, with the final volume of 100 µL. Cell densities were adjusted spectrophotometrically (Multiskan™ GO Microplate Spectrophotometer, Thermo Scientific) at the wavelengths of 600 nm for bacteria and 530 nm for fungi. The MIC was taken as the lowest drug concentration at which a noticeable growth of microorganisms was inhibited. Reference strains of bacteria: Escherichia coli ATCC 25922, E. coli ATCC 23506, Enterococcus faecalis PCM 2673, Klebsiella pneumoniae ATCC 700603, Pseudomonas aeruginosa ATCC 9027, Staphylococcus aureus ATCC 25923, S. aureus 9144, Streptococcus pneumoniae ATCC 49619, and fungi: Aspergillus niger ATCC 16404, Candida albicans ATCC 10231, and C. glabrata ATCC 15126 were obtained from Polish Collection of Microorganisms (PCM, Polish Academy of Sciences, Wroclaw, Poland) and from American Type Culture Collection (ATCC). All experiments were conducted in triplicate.

A. niger ATCC 16404 = test system: A. niger ATCC 16404
Protocol: as §1

[1] = test system: K. pneumoniae ATCC 700603
Protocol: as §1

C. glabrata ATCC 15126 = test system: C. glabrata ATCC 15126
Protocol: as §1

E. faecalis PCM 2673 = test system: E. faecalis PCM 2673
Protocol: as §1

S. aureus ATCC 9144 = test system: S. aureus ATCC 9144
Protocol: as §1

E. coli ATCC 23506 = test system: E. coli ATCC 23506
Protocol: as §1

S. aureus ATCC 25923 = test system: S. aureus ATCC 25923
Protocol: as §1

P. aeruginosa ATCC 9027 = test system: P. aeruginosa ATCC 9027
Protocol: as §1

C. albicans ATCC 10231 = test system: C. albicans ATCC 10231
Protocol: as §1

E. coli ATCC 25922 = test system: E. coli ATCC 25922
Protocol: as §1

[2] = test system: human red blood cells (RBCs); assay: Hemolysis assay; type: cell-based; conditions: fresh human RBCs 4% (v/v) in PBS, 60 min at 37 °C, absorbance 540 nm, 100% control 1% Triton-X 100, triplicate
Protocol: The hemolysis assay was conducted according to the procedure described previously in the literature (Avrahami and Shai [2004]). Fresh human red blood cells (RBCs) with EDTA as anticoagulant were rinsed three times with a phosphate-buffer saline (PBS) by centrifugation at 800×g for 10 min and resuspended in PBS. Serial dilution of peptides (1–512 µg/mL) was conducted in PBS on 96-well plates. Then the stock solution of RBCs was added to reach a final volume of 100 µL with a 4% concentration of erythrocytes (v/v). The control wells for 0 and 100% hemolysis consisted of RBCs suspended in PBS and 1% of Triton-X 100, respectively. Subsequently, the plates were incubated for 60 min at 37 °C and then centrifuged at 800×g for 10 min at 4 °C (Sorvall ST 16R Centrifuge, Thermo Scientific). After centrifugation the supernatant was carefully […] to new microtiter plates and the release of hemoglobin was monitored by measurement of absorbance at 540 nm (Multiskan™ GO Microplate Spectrophotometer, Thermo Scientific). All experiments were conducted in triplicate.

[3] = broth microdilution (CLSI), 2 × 10^3 CFU/mL in RPMI-1640, 0.5–256 µg/mL, 24 h at 37 °C, triplicate
[4] = broth microdilution (CLSI), 5 × 10^5 CFU/mL in Mueller–Hinton Broth, 0.125–256 µg/mL, 18 h at 37 °C, triplicate

| Substance | MIC, S. pneumoniae ATCC 49619 (S. pneumoniae ATCC 49619; ATCC 49619, 18 h) [µg/mL] | MIC, A. niger ATCC 16404 (A. niger ATCC 16404; ATCC 16404, 24 h) [µg/mL] | MIC, K. pneumoniae ATCC 700603 ([1]; ATCC 700603, 18 h) [µg/mL] | MIC, C. glabrata ATCC 15126 (C. glabrata ATCC 15126; ATCC 15126, 24 h) [µg/mL] | MIC, E. faecalis PCM 2673 (E. faecalis PCM 2673; PCM 2673, 18 h) [µg/mL] | MIC, S. aureus ATCC 9144 (S. aureus ATCC 9144; ATCC 9144, 18 h) [µg/mL] | MIC, E. coli ATCC 23506 (E. coli ATCC 23506; ATCC 23506, 18 h) [µg/mL] | MIC, S. aureus ATCC 25923 (S. aureus ATCC 25923; ATCC 25923, 18 h) [µg/mL] | MIC, P. aeruginosa ATCC 9027 (P. aeruginosa ATCC 9027; ATCC 9027, 18 h) [µg/mL] | MIC, C. albicans ATCC 10231 (C. albicans ATCC 10231; ATCC 10231, 24 h) [µg/mL] | MIC, E. coli ATCC 25922 (E. coli ATCC 25922; ATCC 25922, 18 h) [µg/mL] | MIC, A. niger ATCC 16404 (A. niger ATCC 16404; [3]) [µg/mL] | MIC, K. pneumoniae ATCC 700603 [1, 4] [µg/mL] | MIC, C. glabrata ATCC 15126 (C. glabrata ATCC 15126; [3]) [µg/mL] | MIC, C. albicans ATCC 10231 (C. albicans ATCC 10231; [3]) [µg/mL] | other results |
| --- | --- | --- | --- | --- | --- | --- | --- | --- | --- | --- | --- | --- | --- | --- | --- | --- |
| GIGKFLKKAKKFGKAFVKILKK-NH2 [pexiganan] | 1 | 16 | 1 | 256 | 16 | 8 | 2 | 8 | 2 | 256 | 4 | – | – | – | – | – |
| FLPLIGRVLSGIL-NH2 [temporin A] | >256 | 256 | 128 | >256 | 64 | 8 | >256 | 4 | >256 | 256 | 256 | – | – | – | – | – |
| GLFDIIKKIAESF-NH2 [aurein 1.2] | 64 | – | – | – | 64 | 128 | 128 | 128 | 256 | – | 128 | 64 | 16 | 128 | 128 | rate of hemolysis at MIC concentrations [2]: lower than 10% |
| GLFDVIKKVASVIGGL-NH2 [citropin 1.1] | 32 | 64 | 16 | 128 | 32 | 16 | 32 | 16 | 128 | 128 | 32 | – | – | – | – | – |
| KWKLFKKIGAVLKVL-NH2 [CAMEL] | – | – | – | – | – | – | – | – | – | – | – | 16 | 0.125 | 64 | 32 | MIC, S. pneumoniae ATCC 49619 (S. pneumoniae ATCC 49619; [4]): 0.5 µg/mL; MIC, E. faecalis PCM 2673 (E. faecalis PCM 2673; [4]): 8 µg/mL; MIC, S. aureus ATCC 9144 (S. aureus ATCC 9144; [4]): 4 µg/mL; MIC, E. coli ATCC 23506 (E. coli ATCC 23506; [4]): 1 µg/mL; MIC, S. aureus ATCC 25923 (S. aureus ATCC 25923; [4]): 4 µg/mL; MIC, P. aeruginosa ATCC 9027 (P. aeruginosa ATCC 9027; [4]): 2 µg/mL; MIC, E. coli ATCC 25922 (E. coli ATCC 25922; [4]): 2 µg/mL |
| LIGSLVRGILPLF-NH2 [r-temporin A] | >256 | 256 | 128 | >256 | 256 | 64 | 256 | 64 | 256 | 256 | 256 | – | – | – | – | – |
| LGGIVSAVKKIVDFLG-NH2 [r-citropin 1.1] | 128 | 256 | 32 | 256 | 128 | 64 | 128 | 64 | – | 128 | 64 | – | – | – | – | – |
| ILRWPWWPWRRK-NH2 [omiganan] | 8 | – | – | – | 16 | 16 | 32 | 16 | 16 | – | 16 | 64 | 8 | 128 | 128 | – |
| FSEAIKKIIDFLG-NH2 [r-aurein 1.2] | 256 | >256 | 128 | >256 | 256 | >256 | 256 | >256 | >256 | >256 | 256 | – | – | – | – | – |
| KKLIKVFAKGFKKAKKLFKGIG-NH2 [r-pexiganan] | 4 | 32 | 0.25 | 128 | 64 | 64 | 2 | 128 | 2 | 256 | 8 | – | – | – | – | – |
| LVKLVAGIKKFLKWK-NH2 [r-CAMEL] | – | – | – | – | – | – | – | – | – | – | – | 256 | 2 | >256 | 256 | MIC, S. pneumoniae ATCC 49619 (S. pneumoniae ATCC 49619; [4]): 128 µg/mL; MIC, E. faecalis PCM 2673 (E. faecalis PCM 2673; [4]): 64 µg/mL; MIC, S. aureus ATCC 9144 (S. aureus ATCC 9144; [4]): 64 µg/mL; MIC, E. coli ATCC 23506 (E. coli ATCC 23506; [4]): 64 µg/mL; MIC, S. aureus ATCC 25923 (S. aureus ATCC 25923; [4]): 128 µg/mL; MIC, P. aeruginosa ATCC 9027 (P. aeruginosa ATCC 9027; [4]): 8 µg/mL; MIC, E. coli ATCC 25922 (E. coli ATCC 25922; [4]): 128 µg/mL; rate of hemolysis at MIC concentrations [2]: below 10% |
